Drawing on patent US20050004134A1, “Thiazole derivative and pharmaceutical use thereof” (priority 2001, published 2005), this text covers melting point for 23 compounds.

For orientation: melting point means the temperature of the solid-liquid transition.

Take `CC(C)n1nc(-c2sc(NC(=O)CCNCc3ccccn3)nc2-c2ccccc2)ccc1=O` [Example 124, N-[5-(1-Isopropyl-6-oxo-1,6-dihydro-3-pyridazinyl)-4-phenyl-1,3-thiazol-2-yl]-3-[(2-pyridinylmethyl)amino]propanamide]: the melting point is 200 to 201 °C.
Under `CC(C)n1nc(-c2sc(NC(=O)CN3CCCCC3)nc2-c2ccccc2)ccc1=O` [Example 132, N-[5-(1 Isopropyl-6-oxo-1,6-dihydro-3-pyridazinyl)-4-phenyl-1,3-thiazol-2-yl]-2-(1-piperidinyl)acetamide] stands 189 to 190 °C; under `CC(C)n1nc(-c2sc(NC(=O)c3ccc(CN(C)CCN(C)C)cc3)nc2-c2ccccc2)ccc1=O` [Example 137, 4-{[[2-(Dimethylamino)ethyl] (methyl)amino]methyl}-N-[5-(1-isopropyl-6-oxo-1,6-dihydro-3-pyridazinyl)-4-phenyl-1,3-thiazol-2-yl]benzamide], 131 to 133 °C; under `CC(C)n1nc(-c2sc(NC(=O)c3ccc(CNCCO)cc3)nc2-c2ccccc2)ccc1=O` [Example 138, 4-{[(2-Hydroxyethyl)amino]methyl}-N-[5-(1-isopropyl-6-oxo-1,6-dihydro-3-pyridazinyl)-4-phenyl-1,3-thiazol-2-yl]benzamide], 111 to 113 °C.
`CC(C)n1nc(-c2sc(NC(=O)c3ccc(Cn4ccnc4)cc3)nc2-c2ccccc2)ccc1=O` [Example 139, 4-(1H-Imidazol-1-ylmethyl)-N-[5-(1-isopropyl-6-oxo-1,6-dihydro-3-pyridazinyl)-4-phenyl-1,3-thiazol-2-yl]benzamide] gave a melting point above 250 °C.
For `CC(C)n1nc(-c2sc(NC(=O)c3ccc(CNCCN4CCOCC4)cc3)nc2-c2ccccc2)ccc1=O` [Example 140, N-[5-(1-Isopropyl-6-oxo-1,6-dihydro-3-pyridazinyl)-4-phenyl-1,3-thiazol-2-yl]-4-({[2-(4-morpholinyl)ethyl]amino}methyl)benzamide], the melting point is 86 to 88 °C.
Under `CCN(CC)CCNCc1ccc(C(=O)Nc2nc(-c3ccccc3)c(-c3ccc(=O)n(C(C)C)n3)s2)cc1` [Example 142, 4-({[2-(Diethylamino)ethyl]amino}methyl)-N-[5-(1-isopropyl-6-oxo-1,6-dihydro-3-pyridazinyl)-4-phenyl-1,3-thiazol-2-yl]benzamide] stands 158 to 160 °C; under `CC(C)n1nc(-c2sc(NC(=O)c3ccc(CNCCCN(C)C)cc3)nc2-c2ccccc2)ccc1=O` [Example 143, 4-({[3-(Dimethylamino)propyl]amino}methyl)-N-[5-(1-isopropyl-6-oxo-1,6-dihydro-3-pyridazinyl)-4-phenyl-1,3-thiazol-2-yl]benzamide], 108 to 110 °C.
Under `CC(C)n1nc(-c2sc(NC(=O)c3ccc(CNCCN4CCCCC4)cc3)nc2-c2ccccc2)ccc1=O` [Example 144, N-[5-(1-Isopropyl-6-oxo-1,6-dihydro-3-pyridazinyl)-4-phenyl-1,3-thiazol-2-yl]-4-({[2-(1-piperidinyl)ethyl]amino}methyl)benzamide] stands 134 to 136 °C; under `CCOCCNCc1ccc(C(=O)Nc2nc(-c3ccccc3)c(-c3ccc(=O)n(C(C)C)n3)s2)cc1` [Example 145, 4-{[(2-Ethoxyethyl)amino]methyl}-N-[5-(1-isopropyl-6-oxo-1,6-dihydro-3-pyridazinyl)-4-phenyl-1,3-thiazol-2-yl]benzamide], 153 to 154 °C.
In the case of `CC(C)n1nc(-c2sc(NC(=O)c3ccc(CN(C)CCc4ccccn4)cc3)nc2-c2ccccc2)ccc1=O` [Example 147, N-[5-(1-Isopropyl-6-oxo-1,6-dihydro-3-pyridazinyl)-4-phenyl-1,3-thiazol-2-yl]-4-({methyl[2-(2-pyridinyl)ethyl]amino}methyl)benzamide] it was 172 to 174 °C.
As for `CC(=O)N1CCN(CC(=O)Nc2nc(-c3ccccc3)c(-c3ccc(=O)n(C(C)C)n3)s2)CC1` [Example 150, 2-(4-Acetyl-1-piperazinyl)-N-[5-(1-isopropyl-6-oxo-1,6-dihydro-3-pyridazinyl)-4-phenyl-1,3-thiazol-2-yl]acetamide], the melting point lay within 220 to 222 °C.
As for `CC(C)NCc1ccc(C(=O)Nc2nc(-c3ccccc3)c(-c3ccc(=O)n(C(C)C)n3)s2)cc1` [Example 152, 4-[(Isopropylamino)methyl]-N-[5-(1-isopropyl-6-oxo-1,6-dihydro-3-pyridazinyl)-4-phenyl-1,3-thiazol-2-yl]benzamide], the melting point lay in the range of 139 to 141 °C.
In the case of `NC(=O)c1nc(-c2ccccc2)c(-c2ccc(=O)[nH]n2)s1` [Example 158, 5-(6-oxo-1,6-dihydro-3-pyridazinyl)-4-phenyl-1,3-thiazole-2-carboxamide] it was above 250 °C; in that of `Cn1nc(-c2sc(C(N)=O)nc2-c2ccccc2)ccc1=O` [Example 159, 5-(1-methyl-6-oxo-1,6-dihydro-3-pyridazinyl)-4-phenyl-1,3-thiazole-2-carboxamide], 231 to 232 °C; in that of `CCn1nc(-c2sc(C(N)=O)nc2-c2ccccc2)ccc1=O` [Example 160, 5-(1-Ethyl-6-oxo-1,6-dihydro-3-pyridazinyl)-4-phenyl-1,3-thiazole-2-carboxamide], 231 to 232.5 °C.
In the case of `CC(C)n1nc(-c2sc(C(N)=O)nc2-c2ccccc2)ccc1=O` [Example 161, 5-(1-Isopropyl-6-oxo-1,6-dihydro-3-pyridazinyl)-4-phenyl-1,3-thiazole-2-carboxamide] it was 222 to 223 °C.
Compound `C=CCn1nc(-c2sc(C(N)=O)nc2-c2ccccc2)ccc1=O` [Example 162, 5-(1-Allyl-6-oxo-1,6-dihydro-3-pyridazinyl)-4-phenyl-1,3-thiazole-2-carboxamide] yielded a melting point of 198 to 199.5 °C.
For the compound `CC(C)n1nc(-c2sc(C(N)=O)nc2-c2ccccc2F)ccc1=O` [Example 163, 4-(2-Fluorophenyl)-5-(1-isopropyl-6-oxo-1,6-dihydro-3-pyridazinyl)-1,3-thiazole-2-carboxamide], the melting point lay in the range of 213 to 215 °C.
`CC(C)n1nc(-c2sc(C(N)=O)nc2-c2cccc(F)c2)ccc1=O` [Example 164, 4-(3-Fluorophenyl)-5-(1-isopropyl-6-oxo-1,6-dihydro-3-pyridazinyl)-1,3-thiazole-2-carboxamide]: the melting point fell in the range of 248 to 250 °C.
For `CC(C)n1nc(-c2sc(C(N)=O)nc2-c2ccc(F)cc2)ccc1=O` [Example 165, 4-(4-Fluorophenyl)-5-(1-isopropyl-6-oxo-1,6-dihydro-3-pyridazinyl)-1,3-thiazole-2-carboxamide], the melting point was in the range of 226.5 to 227.5 °C.
In the case of `CC(C)n1nc(-c2sc(C(N)=O)nc2-c2cccc(Cl)c2)ccc1=O` [Example 166, 4-(3-Chlorophenyl)-5-(1-isopropyl-6-oxo-1,6-dihydro-3-pyridazinyl)-1,3-thiazole-2-carboxamide] it was 232 to 234.5 °C; in that of `CCCn1nc(-c2sc(C(N)=O)nc2-c2ccccc2)ccc1=O` [Example 167, 5-(6-oxo-1-propyl-1,6-dihydro-3-pyridazinyl)-4-phenyl-1,3-thiazole-2-carboxamide], 201 to 202 °C.
